Earlier results on one molecule are cited in patent publication US10369266B2, “Multipart fluid system and a system for citrate anticoagulation in an extracorporeal blood circuit” (Gambro Lundia AB, priority 2013, dated 2019).

The structures appear in SMILES notation.

The subject of this data set is endothelial inflammation and dysfunction. To be noted: citrate 0.8 mM; hypoglycemic state; in vitro.

For `O=C(O)CC(O)(CC(=O)O)C(=O)O` [citrate], the “effect on endothelial inflammation and dysfunction” value is “reduces endothelial inflammation and dysfunction”.
